# Columns and labels:
# [1] = tested on: excisional wounds; conditions: cited from earlier work
# [2] = tested on: burns; conditions: small quantities in drinking water, excision and grafting, after 5 weeks; cited from earlier work
# [3] = tested on: heart wounds; conditions: 500 ngs continuously, slow release pellet; cited from earlier work
# [4] = tested on: dermis and epidermis; conditions: topical application, not intraperitoneal; cited from earlier work
# [5] = tested on: burned and blistered area of the right thigh; assay: Topical T-3 in Silvadene ointment on a burn
# [6] = tested on: wounds such as lacerations; assay: Lacerations treated with continuous topical T-3 or TriAc; type: in vivo, human; conditions: continuous topical application, in approximately three days
# [7] = tested on: TSH; conditions: topically applied, humans; cited from earlier work
structure (smiles),measurement,setting,value
"N[C@@H](Cc1cc(I)c(Oc2ccc(O)c(I)c2)c(I)c1)C(=O)O [T-3, 3,5,3′-triiodothyronine]",healing of excisional non thermal wounds,"[1]; eurythroid mouse, daily",accelerates the healing
same,wound healing,"[1]; intraperitoneal, hypothyroid mice",improved wound healing
same,healing rate of burns,[2],no change in the healing rate
same,healing of heart wounds,[3],decreased healing of heart wounds
same,growth of the dermis and epidermis,[4],affect the growth of the dermis and epidermis
same,cellular debris and signs of inflammation,"[5]; T-3 1 mg in 30 ml Silvadene ointment, daily for two weeks",more cellular debris and signs of inflammation
same,appearance of the treated area,[5]; after 6 weeks,less reddened areas and had less discolored skin
same,signs of inflammation,[6],increased signs of inflammation
"N[C@@H](Cc1cc(I)c(Oc2cc(I)c(O)c(I)c2)c(I)c1)C(=O)O [T-4, thyroxine]",effect on TSH levels or other thyroid hormone function tests,[7],no effect on TSH levels

# — US20100047332A1, “Treatments for burns using thyroid hormone compound in a human” (priority 2005, published 2010)
